Patent US6923992B2, “Active compounds of Bao-Ji-Wan for anti-diarrhea and relieving gastrointestinal symptoms” (The Chinese University of Hong Kong, priority 2001, dated 2005)
Converted amounts (≈) assume the structure as drawn. Read-outs that look alike come from different tables or passages of the source.

Legend:
[1] = test system: PGE2-induced fluid accumulation; test: PGE2-induced enteropooling assay (fluid accumulation) in rats; assay type: in vivo, Sprague-Dawley rats; conditions: for inhibition at 2 mg/kg: Rattus norvegicus, read-out: Inhibition of secretion
Protocol: This example illustrates the ability of BJW and its active components, magnolol, honokiol and imperatorin, to inhibit PGE2-induced fluid accumulation in rats. Sprague-Dawley rats of either sex, in groups of 8 animals, weighing between 220 and 250 g were used. A modified PGE2-induced enteropooling assay (Robert et al., Prostaglandins 11(5):809-28 (1976)) was used. The test drugs or vehicle were administrated intergastrically to rats 60 min before the administration of PGE2 (100 μg/kg, i.g.). BJW was administered (i.g. 1.6 g/kg, 2× of recommended human dosage) once daily for two days before treatment with PGE2.

[2] = test system: Cl−-secreting human colonic cell line, T84; test: Inhibition of cAMP-activated Cl− secretion across T84 cell monolayers; assay type: cell-based; conditions: forskolin (10 μM), read-out: IC50, inhibition of forskolin-induced Cl− secretion
[3] = rats, dose 2 mg/kg intergastrically 60 min before PGE2 (100 μg/kg, i.g.)

## C=CCc1ccc(O)c(-c2ccc(O)c(CC=C)c2)c1 [Honokiol, honokiol]
[1]; [3]
  inhibition at 2 mg/kg: 56%
  Fluid accumulation ratio (FA): 7.06 ± 1.18 fluid g/g intestine
[2]
  IC50: 4 to 7 µg/mL (≈ 15 to 26.3 µM)

## CN(C)C(=O)C(CCN1CCC(O)(c2ccc(Cl)cc2)CC1)(c1ccccc1)c1ccccc1 [Loperamide, loperamide, reference compound]
[1]
  inhibition at 2 mg/kg: 75%
[1]; [3]
  Fluid accumulation ratio (FA): 5.09 ± 1.40 fluid g/g intestine

## C=CCc1ccc(O)c(-c2cc(CC=C)ccc2O)c1 [Magnolol, magnolol]
[1]
  inhibition at 2 mg/kg: 92%
[1]; [3]
  Fluid accumulation ratio (FA): 3.28 ± 0.32 fluid g/g intestine

## CC(C)=CCOc1c2occc2cc2ccc(=O)oc12 [Imperatorin, imperatorin]
[1]; [3]
  inhibition at 2 mg/kg: 39%
  Fluid accumulation ratio (FA): 8.87 ± 1.93 fluid g/g intestine
[2]
  IC50: 4 to 7 µg/mL (≈ 14.8 to 25.9 µM)

## CC(C)=CCOc1c2ccoc2cc2oc(=O)ccc12 [isoimperatorin]
[2]
  IC50: 4 to 7 µg/mL (≈ 14.8 to 25.9 µM)
